Assay results: ChEMBL document CHEMBL2202983, “Structure-anti-leukemic activity relationship study of ortho-dihydroxycoumarins in U-937 cells: key role of the δ-lactone ring in determining differentiation-inducing potency and selective pro-apoptotic action” (Bioorg Med Chem, 2012)
Active and inactive are the calls of the source. The calls are words filed in the database; no cut-off is given here.

What was measured:
[1] = system: U-937; assay: Induction of apoptosis in human U937 cells assessed as increase of caspase-8 cleavage at 250 uM after 12 hrs by Western blot analysis; type: functional, cell-based
[2] = system: U-937; assay: Induction of cell differentiation in human U937 cells assessed as increase of rhC5a-induced response at 50 uM after 72 hrs by FACS flow cytometer analysis; type: functional, cell-based
[3] = system: U-937; assay: Induction of apoptosis in human U937 cells assessed as activation of caspase-3 at 250 uM after 24 hrs by colorimetric assay in presence of caspase-8 inhibitor Z-LETD-FMK; type: functional, cell-based
[4] = system: U-937; assay: Induction of apoptosis in human U937 cells assessed as PARP cleavage at 250 uM after 24 hrs by Western blot analysis; type: functional, cell-based
[5] = system: U-937; assay: Induction of apoptosis in human U937 cells assessed as activation of caspase-3 at 250 uM after 24 hrs by colorimetric assay in presence of caspase-9 inhibitor Z-LEHD-FMK; type: functional, cell-based
[6] = system: Jurkat; assay: Induction of apoptosis in human Jurkat cells assessed as activation of caspase-3-mediated PARP cleavage at 250 uM after 24 hrs by colorimetric assay; type: functional, cell-based
[7] = system: U-937; assay: Induction of DNA damage in human U937 cells; type: functional, cell-based
[8] = Induction of free radicals production in RPMI 1640 medium at pH 7.4 by electron spin resonance analysis; type: physicochemical
[9] = system: U-937; assay: Induction of apoptosis in human U937 cells assessed as phosphatidylserine expression in plasma membrane at 250 uM after 24 hrs by Annexin V-FITC double staining; type: functional, cell-based
[10] = system: U-937; assay: Induction of cell differentiation in human U937 cells assessed as increase of CD11b and CD14 expression at 50 uM after 72 hrs by FACS flow cytometer analysis; type: functional, cell-based
[11] = system: Jurkat; assay: Cytotoxicity against human Jurkat at 250 uM after 48 hrs by trypan blue assay; type: functional, cell-based
[12] = system: PBMC; assay: Cytotoxicity against human PBMC at 250 uM after 48 hrs by trypan blue assay; type: cell-based
[13] = system: U-937; assay: Cytotoxicity against human U937 cells after 48 hrs by trypan blue assay; type: functional; conditions: U-937, 48 h
[14] = system: U-937; assay: Pro-oxidant activity in human U937 cells assessed as DCF-DA oxidation up to 6 hrs by fluorescence assay; type: functional, cell-based
[15] = system: U-937; assay: Pro-oxidant activity in human U937 cells assessed as DCF-DA oxidation at 10 to 250 uM by fluorescence assay; type: functional, cell-based; conditions: TDE = time-dependent effect
[16] = system: U-937; assay: Induction of apoptosis in human U937 cells assessed as reduction of normal cells at 250 uM after 24 hrs by Annexin V-FITC double staining; type: functional, cell-based
[17] = system: U-937; assay: Inhibition of clonogenic activity in human U937 cells assessed as reduction of colony formation in soft agar at 100 to 250 uM after 24 hrs using crystal violet staining; type: functional, cell-based
[18] = system: U-937; assay: Induction of apoptosis in human U937 cells assessed as activation of caspase-3 at 250 uM after 24 hrs by colorimetric assay; type: functional, cell-based
[19] = system: U-937; assay: Induction of apoptosis in human U937 cells assessed as increase of caspase-9 cleavage at 250 uM by Western blot analysis; type: functional, cell-based; conditions: TDE = time-dependent effect
[20] = system: U-937; assay: Antiproliferative activity against human U937 cells assessed as incorporation of [3H]-methyl-thymidine after 12 hrs by scintillation counting; type: functional, cell-based
[21] = system: U-937; assay: Induction of apoptosis in human U937 cells assessed as active 11 kDa fragment of caspase-3 at 250 uM after 24 hrs by Western blot analysis; type: functional, cell-based
[22] = system: U-937; assay: Cell cycle arrest in human U937 cells assessed as accumulation at sub-G0/G1 phase at 250 uM after 24 hrs using propidium iodide staining by FACS analysis; type: functional, cell-based
[23] = Induction of free radicals production in carbonate buffer at pH 9 by electron spin resonance analysis; type: physicochemical
[24] = Pro-oxidant activity in 0.1 M potassium phosphate buffer at pH 7.4 assessed as increase of oxidation potential by cyclic voltammetry analysis; type: physicochemical
[25] = system: U-937; assay: Induction of apoptosis in human U937 cells assessed as increase of caspase-9 cleavage at 250 uM after 12 hrs by Western blot analysis; type: functional, cell-based
[26] = system: U-937; assay: Induction of cell differentiation in human U937 cells assessed as increase of CD88 expression at 50 uM after 72 hrs by FACS flow cytometer analysis; type: functional, cell-based
[27] = system: U-937; assay: Induction of cell differentiation in human U937 cells assessed as increase of CD11b and CD14 expression at 500 uM after 72 hrs by FACS flow cytometer analysis; type: functional, cell-based
[28] = system: U-937; assay: Induction of apoptosis in human U937 cells assessed as activation of caspase-3 at 500 uM after 24 hrs by colorimetric assay; type: functional, cell-based
[29] = system: U-937; assay: Induction of apoptosis in human U937 cells assessed as activation of caspase-3 at 1000 uM after 48 hrs by colorimetric assay; type: functional, cell-based
[30] = system: U-937; assay: Induction of apoptosis in human U937 cells assessed as reduction of normal cells at 1000 uM after 24 hrs by Annexin V-FITC double staining; type: functional, cell-based
[31] = system: U-937; assay: Induction of apoptosis in human U937 cells assessed as phosphatidylserine expression in plasma membrane at 1000 uM after 24 hrs by Annexin V-FITC double staining; type: functional, cell-based
[32] = system: Jurkat; assay: Induction of apoptosis in human Jurkat cells assessed as activation of caspase-3-mediated PARP cleavage at 500 uM after 24 hrs by colorimetric assay; type: functional, cell-based
[33] = system: Jurkat; assay: Induction of apoptosis in human Jurkat cells assessed as activation of caspase-3 at 500 uM after 24 hrs by colorimetric assay; type: functional, cell-based
[34] = system: U-937; assay: Induction of cell differentiation in human U937 cells assessed as increase of CD88 expression at 250 to 500 uM after 72 hrs by FACS flow cytometer analysis; type: functional, cell-based
[35] = system: U-937; assay: Induction of cell differentiation in human U937 cells assessed as increase of rhC5a-induced response at 250 to 500 uM after 72 hrs by FACS flow cytometer analysis; type: functional, cell-based
[36] = system: U-937; assay: Induction of cell differentiation in human U937 cells assessed as increase of CD11b and CD14 expression at 250 to 500 uM after 72 hrs by FACS flow cytometer analysis; type: functional, cell-based
[37] = system: Jurkat; assay: Induction of apoptosis in human Jurkat cells at 500 uM after 48 hrs by Annexin V-FITC double staining; type: functional, cell-based
[38] = system: U-937; assay: Pro-oxidant activity in human U937 cells assessed as DCF-DA oxidation at 10 to 250 uM after 48 hrs by fluorescence assay; type: functional, cell-based

Row | Compound | Activity [8] | IC50 [20] [µM] | Activity [23] | Activity [4] | CC50 [13] [µM] | Activity [16] | colony formation inhibition (active/not active) [17] | Activity [18] | Activity [21] | Activity [22] | Activity [27] | Activity [28] | further results
1 | Cc1cc(=O)oc2c(O)c(O)ccc12 [4-METHYLDAPHNETIN] | Active | 83.2 | Active | Active | 120 | Active | Active | Active | Active | Active |  |  | Activity [1]: inactive; Activity [2]: Active; Activity [3]: Active; Activity [5]: inactive; Activity [6]: Active; Activity [7]: inactive; Activity [9]: Active; Activity [10]: Active; Activity [11]: Active; Activity [12]: Toxic; Activity [14]: Dose-dependent effect; Activity [15]: tde; Activity [19]: tde; Activity [24]: Active; Activity [25]: Active; Activity [26]: Active
2 | Cc1cc(=O)oc2cc(O)c(O)cc12 [4-METHYLESCULETIN] | Active | 97.4 | Active | Active | 76 | Active | Active | Active | Active | Active |  |  | 
3 | Cc1cc(=O)oc2cc(O)cc(O)c12 [5,7-DIHYDROXY-4-METHYLCOUMARIN] |  | > 2000 |  |  | > 2000 |  |  |  |  |  | Active | inactive | 
4 | O=C(O)/C=C/c1ccc(O)c(O)c1 [CAFFEIC ACID] | Active | 316 | Active |  | > 2000 |  | inactive |  |  |  |  |  | Activity [29]: inactive; Activity [30]: inactive
5 | O=C(O)/C=C/c1ccc(O)cc1 [COUMARIC ACID] |  | > 2000 |  |  | > 2000 |  |  |  |  |  | inactive |  | 

More lines, main results first:

Row | Activity [8] | IC50 [20] [µM] | Activity [23] | Compound | Activity [4] | CC50 [13] [µM] | Activity [16] | colony formation inhibition (active/not active) [17] | Activity [18] | Activity [21] | Activity [22] | Activity [27] | Activity [28] | further results
6 | Active | 213 | Active | O=C(O)CCc1ccc(O)c(O)c1 [DIHYDROCAFFEIC ACID] |  | > 2000 |  | inactive |  |  |  |  |  | Activity [31]: Active; Activity [7]: inactive; Activity [32]: Active; Activity [11]: Active; Activity [33]: Active; Activity [29]: inactive; Activity [34]: Active; Activity [30]: inactive; Activity [35]: Active; Activity [24]: Active; Activity [36]: Active; Activity [37]: inactive; Activity [38]: inactive
7 | Active | 143 | Active | O=c1ccc2cc(O)c(O)cc2o1 [ESCULETIN] | Active | 108 | Active | Active | Active | Active | Active |  |  | 
8 | Active | 143 | Active | COc1cc2ccc(=O)oc2c(O)c1O [FRAXETIN] | Active | 70.2 | Active | Active | Active | Active | Active |  |  | 
9 |  | 711 |  | Cc1cc(=O)oc2cc(O)ccc12 [HYMECROMONE] |  | > 2000 |  | inactive |  |  |  | Active | inactive | Activity [38]: inactive
10 |  | 590 |  | COc1cc2ccc(=O)oc2cc1OC [SCOPARONE] |  | 1290 |  |  |  |  |  |  | inactive | Activity [24]: Not Active
11 |  | 976 |  | COc1cc2ccc(=O)oc2cc1O [SCOPOLETIN] |  | > 2000 |  |  |  |  |  | inactive | inactive | 
